# In PMC10804407, “Rombocin, a Short Stable Natural Nisin Variant, Displays Selective Antimicrobial Activity against Listeria monocytogenes and Employs a Dual Mode of Action to Kill Target Bacterial Strains” (ACS Synthetic Biology, 2024):
# Experiments:
# Bacillus cereus CH-85 = format: cell-based; conditions: CH-85
# Procedure: Each experiment was performed in triplicate.
# L. lactis = experiment: Fluorescence microscopy assay of membrane integrity (SYTO 9 / propidium iodide); format: cell-based, Lactococcus lactis; conditions: 5× MIC, 15 min / 20 min (method), room temperature
# Procedure: L. lactis was cultured until it reached an OD600 of 0.8 and then pelleted at 8000g for 5 min and washed three times in 0.7% NaCl. The cell density was normalized to an OD600 of 0.4 in 0.7% NaCl, and a concentration of 5-fold MIC value of each tested antibiotic was added to the cell suspension simultaneously with SYTO 9 and propidium iodide using the LIVE/DEAD Baclight Bacterial Viability Kit (Invitrogen). After incubation at room temperature for 20 min, the compounds were removed by washing the cells with 0.7% NaCl. Finally, the cell suspensions were loaded onto 1.5% agarose pads and analyzed with a DeltaVision Elite microscope (Applied Precision).
# [1] = Thermal stability by residual antimicrobial activity; format: physicochemical; conditions: residual antimicrobial activity vs L. lactis 1363, agar well, triplicate
# Procedure: (§1) To investigate the impact of proteolytic enzymes, pH, and temperature on the antimicrobial activity, a representative strain of L. lactis 1363 was utilized. For the proteolytic enzyme assay, 40 μL of peptide (1 mg/mL) was incubated with or without final concentrations of 1 mg/mL proteolytic enzymes at room temperature for 3 h, followed by an activity test in the agar well. To determine pH stability, the pH was adjusted to 2, 4, 7, and 10 using 1 M HCl or NaOH. The temperature stability was assessed by incubating the peptide at 22, 50, 70, and 90 °C for a specified duration. All experiments were performed in triplicate.
# Overnight cultures of the test strains were inoculated at a final concentration of 0.1% (v/v) into melted LB agar at 45 °C and then poured onto plates. After solidification, 8 mm wells were created and filled with 40 μL of the lantibiotic solution (1 mg/mL). The lantibiotics were activated by adding 5 μL of NisP directly to the well. The plates were then incubated overnight at 30 °C, and the zone of inhibition was measured. Zone diameters were calculated by subtracting the area of the well (πr^2) from the area of the zone (πr^2) and reported in millimeters. To determine the peptide concentration, purified and lyophilized peptides were resuspended in 0.05% aqueous acetic acid solution and quantified by HPLC following the protocol described by Schmitt et al.[44] […]
# [2] = Spot-on-lawn assay, peptide-LTA complex formation; format: binding, Lactococcus lactis; conditions: spot-on-lawn (LTA 1 mg/mL, 2 μL) and growth curves, L. lactis MG1363
# Procedure: To evaluate the binding of peptide and lipid II or lipoteichoic acid (LTA), an overnight cultured L. lactis MG1363 was added to 0.8% GM17 (w/v, temperature 45 °C) at a final concentration of 0.1% (v/v), and then, the mixture was poured onto 10 mL plates. The binding of peptide and lipid II or LTA was further evaluated by spotting of purified lipid II (300 μM, 2 μL) or LTA (1 mg/mL, 2 μL) to the edge of the inhibition halo of antibiotics. Briefly, antimicrobials were loaded to the agar plate. After the antimicrobial solution drops had dried, lipid II or LTA was spotted to the edge of inhibition halo of antimicrobials. The plates were then incubated overnight at 30 °C after the drops had dried.
# [3] = pH stability by residual antimicrobial activity; format: physicochemical; conditions: residual antimicrobial activity vs L. lactis 1363, agar well, triplicate
# Procedure: as §1
# Overnight cultures of the test strains were inoculated at a final concentration of 0.1% (v/v) into melted LB agar at 45 °C and then poured onto plates. After solidification, 8 mm wells were created and filled with 40 μL of the lantibiotic solution (1 mg/mL). The lantibiotics were activated by adding 5 μL of NisP directly to the well. The plates were then incubated overnight at 30 °C, and the zone of inhibition was measured. Zone diameters were calculated by subtracting the area of the well (πr^2) from the area of the zone (πr^2) and reported in millimeters. To determine the peptide concentration, purified and lyophilized peptides were resuspended in 0.05% aqueous acetic acid solution and quantified by HPLC following the protocol described by Schmitt et al.[44] All experiments were performed in triplicate.
structure (smiles),measurement,setting,value
C=C1NC(=O)[C@H]([C@@H](C)CC)NC(=O)C(NC(=O)C(=CC)NC(=O)[C@@H](N)[C@@H](C)CC)CSC[C@@H](C(=O)NC2C(=O)N[C@@H](C)C(=O)NCC(=O)N[C@H](C(=O)N[C@H](C(=O)NC3C(=O)NCC(=O)N[C@@H](C(C)C)C(=O)N[C@@H]([C@@H](C)CC)C(=O)N[C@@H](CCSC)C(=O)NC(=CC)C(=O)N[C@H](C(=O)N[C@@H](CCSC)C(=O)NC4CSC[C@@H](C(=O)N[C@@H](CCCCN)C(=O)O)NC(=O)CNC(=O)[C@H](CC(N)=O)NC4=O)CSC3C)[C@@H](C)CC)CSC2C)NC(=O)[C@H](CC(C)C)NC1=O (some centres unmarked) [rombocin A],MIC,Bacillus cereus CH-85,25 µg/mL
same,membrane integrity (SYTO 9 / propidium iodide fluorescence),L. lactis,membrane disruption similar to nisin
same,incubation time to complete loss of activity,[1]; 90 °C,7 h
same,reduction in activity,"[1]; temperatures between 22 and 50 °C, up to 10 h",less than 30%
same,binding to lipoteichoic acid (LTA),[2],utilizes electrostatic interactions to interact with the cell walls of target bacteria
same,retained activity,"[3]; neutral pH, after 8 h of incubation",70%
same,reduction in activity,"[3]; pH 2, 4, 7, and 10 (adjusted with 1 M HCl or NaOH), up to 5.5 h",less than 20%
same,retained activity,"[3]; pH 2 and 4, after 8 h of incubation",more than 80%
